In brackets after ≈: the same amount, converted by molar mass.
Columns and labels:
Experiment in all cases: ≥ marks a high value that may be exact or a test limit, other limits are often not marked, values filed in µg/mL are converted to µM
[1] = system: Escherichia coli ATCC 25922
[2] = system: Staphylococcus aureus ATCC 25923
[3] = system: Pseudomonas aeruginosa ATCC 27853

SMILES | MIC [1] | MIC [2] | MIC [3]
CC[C@H](C)[C@H](NC(=O)[C@H](CCCN=C(N)N)NC(=O)[C@H](CCCCN)NC(=O)[C@H](CC(C)C)NC(=O)[C@H](CC(C)C)NC(=O)[C@@H](N)CCCCN)C(=O)N[C@@H](CCCCN)C(=O)N[C@H](C(=O)N[C@@H](CC(C)C)C(=O)N[C@@H](CC(C)C)C(N)=O)[C@@H](C)O [KLLKRIKTLL] | 19.6 µM (≈ 24 µg/mL) | > 19.6 µM | 
CC(C)C[C@H](NC(=O)[C@H](CC(N)=O)NC(=O)[C@H](CCCCN)NC(=O)[C@H](CCCN=C(N)N)NC(=O)[C@@H]1CCCN1C(=O)[C@H](C)N)C(=O)N[C@@H](CCCCN)C(=O)N[C@@H](Cc1c[nH]c2ccccc12)C(=O)O [APRKNLKW] | 31.6 µM (≈ 32 µg/mL) |  | 
CC(C)[C@H](NC(=O)[C@H](Cc1ccc(O)cc1)NC(=O)[C@H](CO)NC(=O)[C@H](CCCCN)NC(=O)[C@@H](N)Cc1c[nH]c2ccccc12)C(=O)N[C@@H](CCCN=C(N)N)C(=O)N[C@@H](CCCN=C(N)N)C(=O)N[C@@H](Cc1c[nH]c2ccccc12)C(=O)N[C@@H](CCCN=C(N)N)C(=O)N[C@@H](CO)C(=O)N[C@@H](CCCN=C(N)N)C(=O)N[C@@H](Cc1ccc(O)cc1)C(N)=O [WKSYVRRWRSRY] | 16 µM (≈ 27.9 µg/mL) | 32 µM (≈ 55.7 µg/mL) | 100 µM (≈ 174 µg/mL)
CSCC[C@H](NC(=O)[C@H](Cc1cnc[nH]1)NC(=O)[C@H](C)NC(=O)[C@H](CCSC)NC(=O)[C@@H](NC(=O)[C@H](CCCCN)NC(=O)[C@@H]1CCCN1C(=O)[C@H](CC(C)C)NC(=O)[C@@H](N)C(C)C)C(C)C)C(=O)N[C@@H](CCCCN)C(=O)O [VLPKVMAHMK] |  |  | 32 µM (≈ 36.9 µg/mL)
CC(C)[C@H](NC(=O)[C@H](Cc1ccc(O)cc1)NC(=O)[C@H](CO)NC(=O)[C@H](CCCCN)NC(=O)[C@@H](N)Cc1c[nH]c2ccccc12)C(=O)N[C@@H](CCCN=C(N)N)C(=O)N[C@@H](CCCN=C(N)N)C(=O)N[C@@H](Cc1c[nH]c2ccccc12)C(=O)N[C@@H](CCCN=C(N)N)C(=O)N[C@@H](CO)C(=O)N[C@@H](CCCN=C(N)N)C(N)=O [WKSYVRRWRSR] | 16 µM (≈ 25.3 µg/mL) | 32 µM (≈ 50.5 µg/mL) | > 100 µM
CC(C)C[C@H](NC(=O)[C@H](C)NC(=O)[C@@H](N)CO)C(=O)N[C@H](C(=O)NCC(=O)N[C@H]1CSSC[C@@H](C(=O)N[C@@H](Cc2ccccc2)C(=O)NCC(=O)N[C@@H](CCCN=C(N)N)C(=O)O)NC(=O)[C@@H]2CCCN2C(=O)[C@H](CCCCN)NC(=O)[C@@H]2CCCN2C(=O)[C@@H]2CCCN2C(=O)[C@H](Cc2ccc(O)cc2)NC(=O)[C@H](CO)NC(=O)[C@H](CCCCN)NC(=O)[C@H]([C@@H](C)O)NC(=O)[C@H](Cc2c[nH]c3ccccc23)NC1=O)C(C)C [SALVGCWTKSYPPKPCFGR] |  | 6 µM (≈ 12.6 µg/mL) | 
CC[C@H](C)[C@H](NC(=O)CNC(=O)[C@@H](N)CO)C(=O)N[C@@H](CCC(N)=O)C(=O)N1CCC[C@H]1C(=O)N[C@@H](CCC(=O)O)C(=O)N[C@@H](CCC(N)=O)C(=O)N[C@@H](Cc1cnc[nH]1)C(=O)N[C@@H](CO)C(=O)N[C@@H](CO)C(N)=O [SGIQPEQHSS] | > 100 µM | > 100 µM | > 100 µM
CC(C)[C@H](NC(=O)[C@H](Cc1ccc(O)cc1)NC(=O)[C@H](CO)NC(=O)[C@H](CCCCN)NC(=O)[C@@H](N)Cc1c[nH]c2ccccc12)C(=O)N[C@@H](CCCN=C(N)N)C(=O)N[C@@H](CCCN=C(N)N)C(=O)N[C@@H](Cc1c[nH]c2ccccc12)C(=O)N[C@@H](CCCN=C(N)N)C(=O)N[C@@H](CO)C(N)=O [WKSYVRRWRS] | 64 µM (≈ 91.1 µg/mL) | > 100 µM | > 100 µM
CC[C@H](C)[C@H](NC(=O)[C@H](CCCCN)NC(=O)[C@H](CC(C)C)NC(=O)[C@H](CC(C)C)NC(=O)[C@@H]1CCCN1C(=O)CNC(=O)[C@H](CC(C)C)NC(=O)[C@H](CCCCN)NC(=O)CN)C(=O)N[C@@H](C)C(=O)N[C@@H](C)C(=O)N[C@@H](CCCCN)C(=O)N[C@H](C(=O)NCC(=O)N[C@@H](CO)C(=O)N[C@@H](CC(N)=O)C(=O)N[C@@H](CC(C)C)C(=O)N[C@@H](CC(C)C)C(N)=O)C(C)C [GKLGPLLKIAAKVGSNLL] | 12.5 µM (≈ 22.4 µg/mL) |  | 
CC(C)C[C@H](NC(=O)[C@@H](N)C(C)C)C(=O)N[C@H](C(=O)N1CCC[C@H]1C(=O)N[C@@H](CCC(N)=O)C(=O)NCC(=O)N[C@@H](Cc1ccccc1)C(=O)N[C@@H](C)C(=O)N[C@H](C(=O)N[C@H](C(=O)N[C@@H](CCCCN)C(=O)N[C@@H](CCCCN)C(=O)N[C@@H](C)C(=O)N[C@@H](CC(N)=O)C(=O)N[C@@H](Cc1ccccc1)C(=O)N[C@H](C(=O)N[C@@H](C)C(=O)N[C@@H](Cc1ccccc1)C(=O)N[C@@H](Cc1ccc(O)cc1)C(=O)N[C@H](C(=O)O)[C@@H](C)O)C(C)C)C(C)C)C(C)C)C(C)C [VLVPQGFAVVKKANFVAFYT] | 233 µM (≈ 512 µg/mL) |  | 
CC(C)C[C@H](NC(=O)[C@H](C)NC(=O)[C@H](CCCCN)NC(=O)[C@H](C)NC(=O)[C@H](CC(C)C)NC(=O)[C@H](CC(=O)O)NC(=O)[C@@H](N)CCC(=O)O)C(=O)N[C@@H](C)C(=O)N[C@@H](CCCCN)C(=O)N[C@@H](CCCCN)C(=O)O [EDLAKALAKK] | 4600 µM (≈ 5000 µg/mL) | 2300 µM (≈ 2500 µg/mL) | 
CSCC[C@H](NC(=O)[C@H](CCCN=C(N)N)NC(=O)[C@@H](N)Cc1ccc(O)cc1)C(=O)N[C@@H](Cc1c[nH]c2ccccc12)C(=O)N[C@@H](CCCN=C(N)N)C(=O)N[C@@H](Cc1c[nH]c2ccccc12)C(=O)N[C@@H](CCCN=C(N)N)C(=O)N[C@@H](Cc1c[nH]c2ccccc12)C(=O)N[C@@H](CCCN=C(N)N)C(=O)N[C@@H](Cc1c[nH]c2ccccc12)C(=O)N[C@@H](CCCN=C(N)N)C(N)=O [YRMWRWRWRWR] | 4.08 µM (≈ 7.5 µg/mL) | 2.72 µM (≈ 5 µg/mL) | 10.9 µM (≈ 20 µg/mL)
CC[C@H](C)[C@H](NC(=O)[C@H](Cc1c[nH]c2ccccc12)NC(=O)[C@H](CCCCN)NC(=O)[C@H](Cc1c[nH]c2ccccc12)NC(=O)[C@H](Cc1c[nH]c2ccccc12)NC(=O)[C@H](CCCCN)NC(=O)[C@H](CCCCN)NC(=O)[C@H](Cc1c[nH]c2ccccc12)NC(=O)[C@@H](N)CCCCN)C(N)=O [KWKKWWKWI] | 5.76 µM (≈ 7.99 µg/mL) |  | 
CC[C@H](C)[C@H](NC(=O)[C@H](CCCN=C(N)N)NC(=O)[C@H](CCCCN)NC(=O)[C@H](CC(C)C)NC(=O)[C@H](CC(C)C)NC(=O)CN)C(=O)N[C@@H](CCCCN)C(=O)N[C@H](C(=O)N[C@@H](CC(C)C)C(N)=O)[C@@H](C)O [GLLKRIKTL] | > 41.3 µM | > 41.3 µM | 
CC(C)C[C@H](NC(=O)[C@H](CCCN=C(N)N)NC(=O)[C@@H](N)CCCCN)C(=O)N[C@@H](CCCN=C(N)N)C(=O)N[C@@H](CCCN=C(N)N)C(=O)N[C@H](C(=O)N[C@@H](Cc1c[nH]c2ccccc12)C(=O)N[C@@H](CCCN=C(N)N)C(=O)N[C@@H](CCCN=C(N)N)C(=O)N[C@@H](Cc1c[nH]c2ccccc12)C(=O)N[C@@H](CCCN=C(N)N)C(N)=O)C(C)C [KRLRRVWRRWR] | 30 µM (≈ 50 µg/mL) | 5 µM (≈ 8.34 µg/mL) | 20 µM (≈ 33.3 µg/mL)
CC(C)C[C@H](NC(=O)[C@@H](NC(=O)[C@H](CCCCN)NC(=O)[C@H](CCCCN)NC(=O)[C@@H](NC(=O)[C@H](CCCN=C(N)N)NC(=O)[C@H](CCCCN)NC(=O)[C@@H](NC(=O)[C@@H](N)CC(C)C)C(C)C)C(C)C)C(C)C)C(=O)O [LVKRVKKVL] |  |  | 64 µM (≈ 69.3 µg/mL)
CC(C)[C@H](NC(=O)[C@H](CC(N)=O)NC(=O)[C@H](CCCCN)NC(=O)[C@H](CCCN=C(N)N)NC(=O)[C@@H]1CCCN1C(=O)[C@H](C)N)C(=O)N[C@@H](CCCN=C(N)N)C(=O)N[C@@H](Cc1c[nH]c2ccccc12)C(=O)O [APRKNVRW] | 62.4 µM (≈ 64 µg/mL) |  | 
CC[C@H](C)[C@H](NC(=O)CNC(=O)[C@H](CC(N)=O)NC(=O)[C@@H](NC(=O)[C@@H](NC(=O)CNC(=O)[C@@H](NC(=O)[C@H](CCCCN)NC(=O)[C@@H](NC(=O)CNC(=O)[C@H](CCCCN)NC(=O)CNC(=O)[C@@H](NC(=O)[C@@H](NC(=O)[C@H](CCCCN)NC(=O)[C@@H]1CCCN1C(=O)[C@H](Cc1ccccc1)NC(=O)[C@@H](NC(=O)CN)[C@@H](C)CC)[C@@H](C)CC)[C@@H](C)CC)[C@@H](C)CC)[C@@H](C)O)[C@@H](C)CC)C(C)C)C(=O)N[C@@H](CCCCN)C(=O)N[C@@H](CO)C(=O)N[C@@H](CC(C)C)C(=O)N[C@H](C(=O)N[C@@H](CCCCN)C(=O)NCC(=O)N[C@H](C(=O)NCC(=O)N[C@@H](CCSC)C(=O)N[C@@H](CCCCN)C(=O)N[C@H](C(=O)N[C@@H](Cc1ccccc1)C(=O)N[C@@H](CCCCN)C(=O)N[C@@H](C)C(=O)NCC(=O)N[C@@H](CC(C)C)C(=O)N[C@@H](CC(N)=O)C(=O)N[C@@H](CC(N)=O)C(=O)N[C@H](C(=O)NCC(=O)N[C@@H](CC(N)=O)C(=O)N[C@H](C(=O)NCC(=O)N[C@H]1CSSC[C@@H](C(=O)O)NC(=O)[C@H](CCC(=O)O)NC(=O)[C@H](CC(=O)O)NC(=O)[C@H](CCC(=O)O)NC(=O)[C@H](CC(N)=O)NC1=O)[C@@H](C)O)[C@@H](C)CC)C(C)C)C(C)C)C(C)C [GIFPKIIGKGIKTGIVNGIKSLVKGVGMKVFKAGLNNIGNTGCNEDEC] | 1 µM (≈ 4.93 µg/mL) |  | 
CC[C@H](C)[C@H](NC(=O)[C@H](CCCN=C(N)N)NC(=O)[C@H](CCCCN)NC(=O)[C@H](CC(C)C)NC(=O)[C@@H](N)CC(C)C)C(=O)N[C@@H](CCCCN)C(=O)N[C@H](C(=O)N[C@@H](CC(C)C)C(=O)N[C@@H](CC(C)C)C(N)=O)[C@@H](C)O [LLKRIKTLL] | 54.7 µM (≈ 59.9 µg/mL) | > 54.7 µM | 
CSCC[C@H](NC(=O)[C@H](CCCN=C(N)N)NC(=O)[C@H](Cc1c[nH]c2ccccc12)NC(=O)[C@H](CCC(N)=O)NC(=O)[C@H](Cc1c[nH]c2ccccc12)NC(=O)[C@H](CCCN=C(N)N)NC(=O)[C@H](CCCN=C(N)N)NC(=O)[C@H](CS)NC(=O)[C@H](CCCCN)NC(=O)[C@@H](N)Cc1ccccc1)C(=O)N[C@@H](CCCCN)C(=O)O [FKCRRWQWRMK] | 30.8 µM (≈ 50 µg/mL) | 30.8 µM (≈ 50 µg/mL) | 

From DBAASP
